Type in all cases: functional, cell-based
The subject of assay [1] is C8161. Briefly: Inhibition of [DEDTC]2-Cu-induced cytotoxicity against human C8161 cells at 50 uM.
Assay [2] has as its system SK-BR-3. Put plainly: Inhibition of [DEDTC]2-Cu-induced cytotoxicity against human SK-BR-3 cells at 50 uM.
Assay [3] has as its system SK-BR-3. Put plainly: Inhibition of [DEDTC]2-Cu-induced apoptosis in human SK-BR-3 cells assessed as PARP-cleavage at 50 uM.
For assay [4], the system named is C8161. Briefly: Inhibition of [DEDTC]2-Cu-induced iNOS-down regulation human C8161 cells.

Activity calls are given as the source filed them. No cut-off for these calls is given here.

Turning to `CC(=O)N[C@@H](C(=O)O)C(C)(C)SN=O`, the outcome in the assay on C8161 [1], with SK-BR-3 [2], in the assay on SK-BR-3 [3] and with C8161 [4] was Active.

For the compound `NCCN(CCN)N(O)N=O`, the result in the assay with C8161 [1] was Active.

For the origin of these results see ChEMBL document CHEMBL1154910, “Nitric oxide donors or nitrite counteract copper-[dithiocarbamate](2)-mediated tumor cell death and inducible nitric oxide synthase down-regulation: possible role of a nitrosyl-copper [dithiocarbamate](2) complex” (J Med Chem, 2010).
